According to patent US20250276955A1, “CORONAVIRUS MAIN PROTEASE INHIBITORS AND METHODS USING SAME” (Baylor College of Medicine, priority 2021, published 2025):
Values after ≈ are worked out from the molar mass of the structure shown. “Also recorded” adds a separate entry of the source. Like-named read-outs stand apart in the source and are kept apart here.

Tests used:
[1] = molecular target: T1, Human Cathepsin B (Homo sapiens, UniProt P07858); experiment: Cathepsin B assay; format: biochemical
T1 construct: purchased BPS Bioscience 79590
Protocol: A kit from BPS Bioscience (#79590) was used with adjustments to the manufacturer's protocol as follows: The activated enzyme was diluted 250-fold just before use, and the reaction was run at RT in black 96 half-area plates in a total reaction volume of 50 uL containing 0.01% Tween-20. Instead of measuring endpoints at 60 min the increase in fluorescence (Ex 360 nm, Em 460 nm) per second (RFU/s) was obtained from linear progress curves over 10 min. Fractional activities were calculated from reactions with no inhibitors. E-64 was used as a positive control.

[2] = molecular target: SARS-COV-2 M^pro-His6 (Severe acute respiratory syndrome coronavirus 2, UniProt P0DTD1); experiment: biochemical; format: biochemical
[3] = molecular target: T2, HOVPro-Gi.1 (Norovirus, UniProt Q83883); experiment: Thermal shift, HOVPro-Gi.1; format: binding
T2 construct: HOVPro-Gi.1
T2 sequence (Q83883 1101-1281): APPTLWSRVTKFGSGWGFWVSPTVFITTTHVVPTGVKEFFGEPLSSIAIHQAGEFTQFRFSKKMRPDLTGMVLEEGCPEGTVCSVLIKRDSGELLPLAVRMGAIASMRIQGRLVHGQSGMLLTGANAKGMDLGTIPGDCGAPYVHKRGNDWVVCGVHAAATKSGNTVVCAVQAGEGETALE

[4] = molecular target: SARS-COV-2 M^pro (authentic N- and C-termini) (Severe acute respiratory syndrome coronavirus 2, UniProt P0DTD1); experiment: biochemical; format: biochemical
[5] = Apparent solubility in PBS buffer; settings: for solubility: PBS buffer with 2% DMSO, aqueous buffer, kinetic from dmso stock
[6] = molecular target: SARS-CoV-2 main protease (M^pro) (Severe acute respiratory syndrome coronavirus 2, UniProt P0DTD1); experiment: Protein thermal shift stability assay (SYPRO Orange); format: binding
[7] = 293T relative cell viability; settings: human, 293T cells
[8] = Metabolic stability in mouse liver microsomes; format: in vitro ADME; settings: mouse, liver microsomes; for half-life at 2 μM: Table 4, read-out: MLM t1/2
Protocol: (§1) The samples were collected at specific time-points 0, 30, and 60 min in duplicate. The reactions were terminated by adding an equivalent volume of ice-cold methanol and vortexed. […] Three μL of the supernatant was analyzed by UHPLC-Q Exactive Orbitrap MS (Thermo Fisher Scientific, USA) equipped with 50 mm×4.6 mm column (XDB C-18, Agilent Technologies, USA). The column temperature was maintained at 40° C. The flow rate was at 0.3 mL/min with a 30% mobile phase (acetonitrile containing 0.1% formic acid). Q Exactive MS was operated in positive mode with electrospray ionization. Ultra-pure nitrogen was applied as the sheath (45 arbitrary unit), auxiliary (10 arbitrary unit), sweep (1.0 arbitrary unit) and the collision gas. […] MS data were acquired from 80 to 1,200 Da in profile mode.

[9] = molecular target: T3, human thrombin (Homo sapiens, UniProt P00734); experiment: Thrombin fluorescence assay; format: biochemical
T3 construct: purchased Sigma-Aldrich MAK243

[10] = tested on: HOVPro-Gii.4; experiment: Thermal shift, HOVPro-Gii.4; format: binding
[11] = Metabolic stability in human liver microsomes; format: in vitro ADME; settings: human, liver microsomes; for half-life at 2 μM: Table 4, read-out: HLM t1/2
Protocol: as §1

[12] = Pharmacokinetics in mice; format: in vivo; settings: 50 mg/kg intraperitoneal, plasma
Protocol: The whole blood samples were span at 2,000 rcf for 5 min for the separation of plasma. […] The concentration of these compounds in plasma were quantified using a calibration curve.

[13] = molecular target: T4, matrix metallopeptidase 1 (MMP-1) (Homo sapiens, UniProt P03956); experiment: MMP-1 assay; format: biochemical
T4 construct: purchased Biovision K794-100
T4 sequence (P03956 100-469): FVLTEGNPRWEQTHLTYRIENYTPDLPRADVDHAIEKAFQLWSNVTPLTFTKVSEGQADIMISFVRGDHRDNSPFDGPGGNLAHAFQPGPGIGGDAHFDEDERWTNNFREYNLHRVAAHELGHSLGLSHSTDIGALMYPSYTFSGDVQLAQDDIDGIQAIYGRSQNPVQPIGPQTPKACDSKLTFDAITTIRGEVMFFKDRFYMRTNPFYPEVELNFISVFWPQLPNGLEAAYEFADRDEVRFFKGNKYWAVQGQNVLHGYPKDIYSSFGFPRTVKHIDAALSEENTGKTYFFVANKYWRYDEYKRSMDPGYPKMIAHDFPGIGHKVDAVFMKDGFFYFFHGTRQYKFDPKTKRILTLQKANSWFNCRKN
Protocol: A kit from Biovision (#K794-100) was used with adjustments to the manufacturer's protocol as follows: The enzyme was reconstituted according to protocol and then diluted 5-fold with assay buffer just before use. The unknown fluorogenic substrate was further diluted 10-fold with the provided assay buffer. The reaction was run at 37 C in black 96 half-area plates in a total reaction volume of 50 μL containing 0.01% Tween-20. The increase in fluorescence (Ex 490 nm, Em 520 nm) per second (RFU/s) was obtained from linear progress curves over 10 min. Fractional activities were calculated from reactions with no inhibitors. GM 6001 was used as a positive control.

[14] = molecular target: T5, renin (Homo sapiens, UniProt P00797); experiment: Renin assay; format: biochemical
T5 construct: purchased BPS Bioscience 80211
T5 sequence (P00797 67-406): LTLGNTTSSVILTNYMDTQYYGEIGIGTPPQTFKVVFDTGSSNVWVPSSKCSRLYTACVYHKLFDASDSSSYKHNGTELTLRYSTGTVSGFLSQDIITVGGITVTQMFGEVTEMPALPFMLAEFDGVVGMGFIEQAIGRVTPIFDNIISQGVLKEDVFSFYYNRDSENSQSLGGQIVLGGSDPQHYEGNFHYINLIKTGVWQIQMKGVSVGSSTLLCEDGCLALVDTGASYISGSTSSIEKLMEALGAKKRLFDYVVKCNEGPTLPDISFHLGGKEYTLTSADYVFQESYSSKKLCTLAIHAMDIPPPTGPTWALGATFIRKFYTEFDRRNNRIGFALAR
Protocol: A kit from BPS Bioscience (#80211) was used with adjustments to the manufacturer's protocol as follows: The reaction was run at RT in black 96 half-area plates in a total reaction volume of 50 uL containing 0.01% Tween-20. Instead of measuring endpoints at 30 min the increase in fluorescence (Ex 490 nm, Em 520 nm) per second (RFU/s) was obtained from linear progress curves over 10 min. Fractional activities were calculated from reactions with no inhibitors. Aliskiren was used as a positive control.

[15] = tested on: HepG2 cells; experiment: HepG2 cytotoxicity assay (XTT); settings: Homo sapiens, HepG2, 24 h, read-out: HepG2 cell viability IC50

Compound	Human Cathepsin B, Fractional Remaining Activity [1]	ΔTm of HOVPro-Gi.1 at 50 μM compound conc. [3] [°C]	solubility [5] [µM]	ΔTm of Mpro at 50 μM compound conc. ([6]; 50 μM compound, […]) [°C]	cytotoxicity at 3 day, 10 μM [7] [%]	microsomal CLint at 2 μM [8] [µL/min/mg]	half-life at 2 μM [8] [min]	Thrombin inhibition ([9]; fluorescence assay)	ΔTm of HOVPro-Gii.4 at 50 μM compound conc. [10] [°C]	microsomal CLint at 2 μM [11] [µL/min/mg]	half-life at 2 μM [11] [min]	cathepsin B inhibition (in words) [1]	AUC0-t [12] [µM·h]	CL/F [12]	Tmax [12] [min]	MMP-1 inhibition (in words) [13]	thrombin inhibition (in words) ([9]; fluorescence assay)	renin inhibition (in words) [14]	thrombin inhibition (in words) [9]	other results
CCC[C@H](NC(=O)c1cccc2nc(-c3cncc4ccccc34)n([C@H]3C[C@H](C(=O)NC)C3)c12)c1ccc(OC(F)F)cc1 [CDD-1780]	0.95	−0.18	41.8 (≈ 25 µg/mL)	9.19	6	39.5	35.1	None	−1.23	76.1	18	–	–	–	–	–	–	–	–	Ki ([2]; Table 3, column a (footnote not given), read-out: Kiapp (nM)^a): 13.7 ± 1.5 nM; Ki ([4]; Table 3, column b (footnote not given), read-out: Kiapp (nM)^b): 15.7 ± 1.6 nM
CCCC(NC(=O)c1cccc2nc(-c3cncc4ccccc34)n([C@H]3C[C@H](C(=O)NC)C3)c12)c1ccc(C(F)(F)F)cc1 (some centres unmarked) [CDD-1733]	0.91	–	–	–	–	–	–	None	–	–	–	negative	7.80 ± 3.22	7.73 ± 2.75 mg/(hr · μmol/L)/kg	60	negative	No inhibition; also recorded: negative	negative	–	ΔTm of HOVPro-Gi.1 at 50 μM compound conc. ([3]; 50 µM): −0.74 °C; Measured apparent solubility in PBS buffer (2% DMSO) ([5]; PBS buffer, 2% DMSO): 30.3 µM; ΔTm of Mpro at 50 μM compound conc. ([6]; 50 μM compound, […], 50 µM): 7.75 °C; ΔTm of HOVPro-Gii.4 at 50 μM compound conc. ([10]; 50 µM): −1.2 °C
COc1cc(-c2cccc3[nH]ncc23)cc(C=O)c1OCC(=O)N1CCC(Oc2cccc(C(=O)N(C)C)c2)C1 (centres unmarked) [CDD-1714, 3-((1-(2-(2-formyl-4-(1H-indazol-4-yl)-6-methoxyphenoxy)acetyl)pyrrolidin-3-yl)oxy)-N,N-dimethylbenzamide]	0.92	−0.11	54.4 (≈ 29.5 µg/mL)	–	21	130	10.7	–	−0.41	132	10.5	–	–	–	–	–	–	–	No inhibition	Ki ([2]; 25 nM enzyme, 15 μM fluorescent peptide, Morrison equation, Inactive = less than 50% inhibition at 25 μM compound, read-out: M^pro-His Ki): 20.2 ± 3 nM; Ki ([4]; Morrison equation, read-out: apparent Ki against M^pro): 24.4 nM; stabilization of M^pro in thermal shift assay (in words) [6]: stabilized; also recorded: concentration-dependent stabilization; ΔTm of Mpro at 50 μM compound conc. [6]: 2.93 °C; Thrombin inhibition [9]: None
CNC(=O)[C@H]1C[C@H](n2c(-c3cncc4ccccc34)nc3cccc(C(=O)NC(C)c4ccc5ccccc5c4)c32)C1 (some centres unmarked) [CDD-1819]	–	–	–	–	–	–	–	–	–	–	–	negative	–	7.26 ± 1.81 mg/(hr · μmol/L)/kg	–	negative	negative	negative	–	IC50 [15]: > 100000 nM; MRT last ([12]; mouse, ip, read-out: MRT0-t): 78.6 ± 7.2 min; MRT inf ([12]; mouse, ip, read-out: MRT0-∞): 85.2 ± 9.6 min; Tmax ([12]; mouse, ip, read-out: Tmax): 19.8 ± 8.4 min
CNC(=O)CCCn1c(-c2cncc3ccccc23)nc2cccc(C(=O)N[C@@H](C)c3ccc4ccccc4c3)c21 [CDD-1845]	–	–	–	–	–	–	–	–	–	–	–	negative	14.87 ± 7.79	4.02 ± 1.98 mg/(hr · μmol/L)/kg	19.8 ± 8.4	negative	–	negative	negative	AUC0-∞ [12]: 14.93 ± 7.85 µM·h; Cmax [12]: 8.93 ± 4.55 µM; MRT0-t [12]: 73.2 ± 1.8 min; MRT0-∞ [12]: 75 ± 1.2 min; T1/2 [12]: 68.4 ± 19.2 min
CNCc1cc(-c2cccc3[nH]ncc23)cc(OC)c1OCC(=O)N(C)C [CDD-1777]	–	–	195 (≈ 71.7 µg/mL)	1.00	4	–	–	–	–	–	–	–	–	–	–	–	–	–	–	M^pro-His Ki [2]: Inactive; Ki,app [4]: Inactive; M^pro Ki [4]: Inactive
